Values after ≈ are worked out from the molar mass of the structure shown. Where two headings read alike, the source gives them in different places. Positions of bridges follow the written chain, without caps; N, C: chain ends. Non-standard residues stand in square brackets, D forms with d. Residues, ends and D or L forms follow the SMILES beside them. *: point of attachment. Ileψ(thiazoline)Cys = CC[C@H](C)[C@H](N)C1=N[C@H](C(=O)*)CS1; dOrn = NCCC[C@@H](N)C(=O)O
Legend:
[1] = tested on: E. coli cells transcribing antisense RNA to rplL and rplJ (AS-rplL/J); experiment: microbe, parasite or virus in culture; format: cell-based; conditions: for Fold Increase: IC50 without IPTG vs IC50 with 400 μM IPTG; for Sensitivity (increased sensitivity observed in the presence of IPTG): statistically significant decrease in IC50 in the presence of inducer; for IC50: Escherichia coli
Procedure: Antibiotics of various chemical classes and modes of action were purchased from Sigma Chemicals (St. Louis, Mo.). Stock solutions were prepared by dissolving each antibiotic in an appropriate aqueous solution based on information provided by the manufacturer. The final working solution of each antibiotic contained no more than 0.2% (w/v) of any organic solvent. To determine their potency against a bacterial strain engineered for transcription of an antisense comprising a nucleotide sequence complementary to a proliferation-required 50S ribosomal protein, each antibiotic was serially diluted two-or three-fold in growth medium supplemented with the appropriate antibiotic for maintenance of the antisense construct. At least ten dilutions were prepared for each antibiotic. 25 μL aliquots of each dilution were transferred to discrete wells of a 384-well microplate (the assay plate) using a multi-channel pipette. Quadruplicate wells were used for each dilution of an antibiotic under each treatment condition (plus and minus inducer). Each assay plate contained twenty wells for cell growth controls (growth medium replacing antibiotic), ten wells for each treatment (plus and minus inducer, in this example IPTG). Assay plates were usually divided into the two treatments: half the plate containing induced cells and an appropriate concentrations of inducer (in this example IPTG) to maintain the state of induction, the other half containing non-induced cells in the absence of IPTG.
Cells for the assay were prepared as follows. Bacterial cells containing a construct, from which transcription of antisense nucleic acid comprising a nucleotide sequence complementary to rplL and rplJ (AS-rplL/J), which encode proliferation-required 50S ribosomal subunit proteins, is inducible in the presence of IPTG, were grown into exponential growth (OD600 0.2 to 0.3) and then diluted 1:100 into fresh medium containing either 400 μM or 0 μM inducer (IPTG). These cultures were incubated at 37° C. for 2.5 hr. After a 2.5 hr incubation, induced and non-induced cells were respectively diluted into an assay medium at a final OD600 value of 0.0004. The medium contained an appropriate concentration of the antibiotic for the maintenance of the antisense construct. In addition, the medium used to dilute induced cells was supplemented with 800 μM IPTG so that addition to the assay plate would result in a final IPTG concentration of 400 μM. Induced and non-induced cell suspensions were dispensed (25 μl/well) into the appropriate wells of the assay plate as discussed previously. The plate was then loaded into a plate reader, incubated at constant temperature, and cell growth was monitored in each well by the measurement of light scattering at 595 nm. Growth was monitored every 5 minutes until the cell culture attained a stationary growth phase. For each concentration of antibiotic, a percentage inhibition of growth was calculated at the time point corresponding to mid-exponential growth for the associated control wells (no antibiotic, plus or minus IPTG). For each antibiotic and condition (plus or minus IPTG), a plot of percent inhibition versus log of antibiotic concentration was generated and the IC50 determined.

[2] = tested on: E. coli transformed with IPTG-inducible antisense clones; experiment: Cell-based assay of antibiotic sensitivity in E. coli transcribing non-stabilized antisense RNA
Excerpt: The effectiveness of the above cell-based assays in which the level or activity of a gene product required for proliferation was reduced was validated using constructs transcribing a non-stabilized antisense RNA to the proliferation required E. coli genes rplL, rplJ and rplW encoding ribosomal proteins L7/L12, L10 and L23 respectively. These proteins are essential components of the protein synthesis apparatus of the cell and as such are required for proliferation. Constructs transcribing antisense RNA to several other genes (elaD, visC, yohH, and atpE/B), the products of which are not involved in protein synthesis were used for comparison.
First, pLex5BA (Krause et al., J. Mol. Biol. 274: 365 (1997), the disclosure of which is incorporated herein by reference in its entirety) vectors containing antisense constructs to either rplW or to elaD were introduced into separate E. coli cell populations. […]
The cell populations containing vectors producing AS-elaD or AS-rplW were exposed to a range of IPTG concentrations in liquid medium to obtain the growth inhibitory dose curve for each clone (FIG. 5). First, seed cultures were grown to a particular turbidity measured by the optical density (OD) of the growth solution. […] The cells were grown for up to 15 hours and the extent of growth was determined by measuring the optical density of the cultures at 600 nm. […]

Compound | Fold Increase [1] | Sensitivity (increased sensitivity observed in the presence of IPTG) [1] | also measured
CN(C)c1ccc(O)c2c1C[C@H]1C[C@H]3[C@H](N(C)C)C(O)=C(C(N)=O)C(=O)[C@@]3(O)C(O)=C1C2=O [Minocycline] | 172 |  | 
CCn1cc(C(=O)O)c(=O)c2ccc(C)nc21 [Nalidixic acid] | 1 | No | sensitivity of clone to the antibiotic ([2]; clone transcribing antisense to rplL and rplJ (AS-rplL/J)): does not show increased sensitivity
CC[C@H](C)[C@H](N)C1=N[C@H](C(=O)N[C@@H](CC(C)C)C(=O)N[C@H](CCC(=O)O)C(=O)N[C@H](C(=O)N[C@H]2CCCCNC(=O)[C@H](CC(N)=O)NC(=O)[C@@H](CC(=O)O)NC(=O)[C@H](Cc3cnc[nH]3)NC(=O)[C@@H](Cc3ccccc3)NC(=O)[C@H]([C@@H](C)CC)NC(=O)[C@@H](CCCN)NC2=O)[C@@H](C)CC)CS1 [Bacitracin] ({Ileψ(thiazoline)Cys}-L[dE]IK[dOrn]I[dF]H[dD]N; lactam 4-C) | 1 | No | IC50 ([1]; read-out: IC50 (+IPTG)): 4.68 µg/mL (≈ 3.29 µM); IC50 ([1]; read-out: IC50 (−IPTG)): 4.08 µg/mL (≈ 2.87 µM)
CC[C@H]1OC(=O)[C@H](C)[C@@H](O[C@H]2C[C@@](C)(OC)[C@@H](O)[C@H](C)O2)[C@H](C)[C@@H](O[C@@H]2O[C@H](C)C[C@H](N(C)C)[C@H]2O)[C@](C)(O)C[C@@H](C)C(=O)[C@H](C)[C@@H](O)[C@]1(C)O [Erythromycin] | 40 | Yes | sensitivity of clones to the antibiotic ([2]; clones transcribing antisense to protein synthesis genes (L7/L12 & L10, L7/L12, L22, L18, rRNA, Elongation Factor G), initial experiments): increased sensitivity
[H]/N=C(/N)N[C@H]1[C@H](O)[C@@H](O)[C@H](O[C@@H]2O[C@@H](C)[C@](O)(C=O)[C@H]2O[C@@H]2O[C@@H](CO)[C@H](O)[C@@H](O)[C@@H]2NC)[C@@H](N/C(N)=N\[H])[C@@H]1O [Streptomycin] | 70 | Yes | 
NC[C@H]1O[C@H](O[C@H]2[C@H](O)[C@@H](O[C@H]3O[C@H](CO)[C@@H](O)[C@H](N)[C@H]3O)[C@H](N)C[C@@H]2N)[C@H](N)C[C@@H]1O [Tobramycin] | 51 | Yes | 
C[C@H]1c2cccc(O)c2C(=O)C2=C(O)[C@]3(O)C(=O)C(C(N)=O)=C(O)[C@@H](N(C)C)[C@@H]3[C@@H](O)[C@@H]21 [Doxycycline] | 15 |  | 
CN[C@@H]1[C@H](O)[C@H](NC)[C@H]2O[C@@]3(O)C(=O)C[C@@H](C)O[C@H]3O[C@@H]2[C@H]1O [Spectinomycin] |  | Yes | IC50 ([1]; read-out: IC50 (+IPTG)): < 0.156 µg/mL
Gentamicin | 141 | Yes | IC50 (+IPTG) ([1]; induced AS-rplL/J cells, 400 μM IPTG): 0.01919 µg/mL; IC50 (−IPTG) ([1]; non-induced AS-rplL/J cells, 0 μM IPTG): 2.715 µg/mL
CN[C@H](CC(C)C)C(=O)N[C@H]1C(=O)N[C@@H](CC(N)=O)C(=O)N[C@H]2C(=O)N[C@H]3C(=O)N[C@H](C(=O)N[C@H](C(=O)O)c4cc(O)cc(O)c4-c4cc3ccc4O)[C@H](O)c3ccc(c(Cl)c3)Oc3cc2cc(c3O[C@@H]2O[C@H](CO)[C@@H](O)[C@H](O)[C@H]2O[C@H]2C[C@](C)(N)[C@H](O)[C@H](C)O2)Oc2ccc(cc2Cl)[C@H]1O [Vancomycin] | 2 | No | IC50 ([1]; read-out: IC50 (+IPTG)): 72.5 µg/mL (≈ 50.1 µM); IC50 ([1]; read-out: IC50 (−IPTG)): 145 µg/mL (≈ 100 µM)
CC1COc2c(N3CCN(C)CC3)c(F)cc3c(=O)c(C(=O)O)cn1c23 (centres unmarked) [Ofloxacin] | 1 |  | 
CO[C@@]1(NC(=O)Cc2cccs2)C(=O)N2C(C(=O)O)=C(COC(N)=O)CS[C@@H]21 [Cefoxitin] | 1 | No | 
O=C(N[C@H](CO)[C@H](O)c1ccc([N+](=O)[O-])cc1)C(Cl)Cl [Chloramphenicol] | 307 | Yes | 
CN(C)[C@@H]1C(O)=C(C(N)=O)C(=O)[C@@]2(O)C(O)=C3C(=O)c4c(O)cccc4[C@@](C)(O)[C@H]3C[C@@H]12 [Tetracycline] | 109 |  | 
CCC[C@@H]1C[C@@H](C(=O)N[C@@H]([C@H]2O[C@H](SC)[C@H](O)[C@@H](O)[C@H]2O)[C@@H](C)O)N(C)C1 [Lincomycin] | 145 | Yes | 
CC(=O)O[C@H]1C[C@@]2(C)[C@@H](C[C@@H](O)[C@H]3[C@@]4(C)CC[C@@H](O)[C@@H](C)[C@@H]4CC[C@@]32C)/C1=C(\CCC=C(C)C)C(=O)O [Fusidic acid] | 94 | Yes | 
CO/N=C(\C(=O)N[C@@H]1C(=O)N2C(C(=O)O)=C(COC(C)=O)CS[C@H]12)c1csc(N)n1 [Cefotaxime] | 1 | No | 

— US20030170694A1, “Stabilized nucleic acids in gene and drug discovery and methods of use” (priority 2001, published 2003)
